Target: Replicase polyprotein 1ab (Severe acute respiratory syndrome coronavirus 2, UniProt P0DTD1)
Experiment: Enzyme Inhibition Assay and Ki Values Determination
Text: Initial hydrolysis rates of fluorescent peptide were plotted as a function of compound concentrations and Ki values were obtained by fitting the data into the Morrison equation (42) with SE from triplicates.

Q: For `COc1cc(-c2cccc3[nH]ncc23)cc(CO)c1OCC(=O)N1CCC(Oc2cccc(C(=O)N(C)C)c2)C1` (stereo unspecified) [CDD-1714], which Ki is on record?
A: Its Ki is 0.024 µM.

Source: BindingDB's records for doi:10.1073/pnas.2111172118 (Baylor College of Medicine, 2021)
